Data published in ChEMBL document CHEMBL3108691, “Structural investigation of cycloheptathiophene-3-carboxamide derivatives targeting influenza virus polymerase assembly” (J Med Chem, 2013).

Test system: Influenza A virus
Assay type: functional, organism-based, Influenza A virus (A/Parma/24/2009(H1N1))
Details: MDCK, 48 h

## NC(=O)c1ncn([C@@H]2O[C@H](CO)[C@@H](O)[C@H]2O)n1 [RIBAVIRIN]
  EC50: 17 µM
